Measured values from patent publication US20210138090A1, “uPAR targeting peptide for use in peroperative optical imaging of invasive cancer” (FLUOGUIDE A/S, priority 2014, published 2021).
Square brackets hold non-standard residues; d marks the D form. Peptide text beside a SMILES is read from it. * marks the point of attachment. IRDye800CW = CC1(C)C(/C=C/C2=C(Oc3ccc(S(=O)(=O)O)cc3)C(=C/C=C3/N(CCCCS(=O)(=O)O)c4ccc(S(=O)(=O)O)cc4C3(C)C)/CCC2)=[N+](CCCCCC(=O)*)c2ccc(S(=O)(=O)[O-])cc21; Cha = N[C@@H](CC1CCCCC1)C(=O)O; AEEA = NCCOCCOCC(=O)O

Key:
[1] = system: orthotopic GBM (U-87 MG-luc2 cells); assay: dynamic NIR imaging of orthotopic GBM on cross sectioned brain (Fluobeam); format: in vivo, mice; details: for tumor mean fluorescence intensity (MFI): 333 ms exposure
Protocol: All experimental procedures in animals were carried out in accordance with the approval by The Animal Experiments Inspectorate, Denmark. 7-10-week-old female nude mice (strain: Rj:NMRI-Foxn1nu/nu, JANVIER LABS, France) were orthotopically xenografted with U-87 MG-luc2 cells.
The orthotopic GBM tumor model was established by inoculation of 500.000 cells in 10 μL ice cold PBS in the right hemisphere (1.5 mm lateral and 0.5 mm posterior to the bregma at 2 mm depth) using a stereotaxic frame (KOPF INSTRUMENTS, Tujunga, Calif., USA) with the automated microinjection pump UMP3 (WPI, Sarasota, Fla., USA). The cells were injected over 5 min with the syringe kept in place for further 3 min before retraction. Tumor growth was subsequently monitored on MRI with the BioSpec 7T (Bruker, Billerica, Mass., USA) with axial and coronal T2-wighted sequences. When the tumor size reached 2-17 mm^3, the animals were included in the fluorescence imaging protocol.
All image acquisition was performed with the Fluobeam system with (Fluosoft version: 2.2.1) (Fluoptics, Grenoble, France). To characterize the in vivo biodistribution and tumor imaging properties, IRDye800-AE344 was administered through tail vein injection into all the GBM bearing mice (n=35) at four different doses: 1 nmol, 3 nmol, 6 nmol, and 12 nmol. Two mice were sacrificed for each time point and the brain was removed and cross sectioned through the tumor for imaging. […] Accordingly, image acquisition was performed at following time points after injection: • 1 nmol: 0.5 h, 1 h, and 2 h • 3 nmol: 1 h, 2 h, 3 h, and 5 h • 6 nmol: 1 h, 3 h, 6 h, and 12 h • 12 nmol: 1 h, 3 h, 5 h, 10 h, 15 h, and 24 h
(§1) Images were analyzed and processed in ImageJ 1.52a, NIH, USA. Signal measurements were performed on the raw images generated by the Fluoptics system. Tumor signal was measured as a mean fluorescence intensity of the whole tumor and background signal was measured as the mean of a representative area with no tumor on the contralateral hemisphere. Presented pictures are contrast enhanced in ImageJ with the Contrast Enhancement (Saturated pixels: 0.3%).

[2] = system: orthotopic GBM (U-87 MG-luc2 cells); assay: in vivo binding specificity in orthotopic GBM (blocking with AE120, scrambled probe); design: species or system mice; details: 3 nmol, 1 h
Protocol: The target specificity to uPAR was evaluated by two different methods: competitive blocking with the uPAR targeting peptide AE120 ((DChaFsrYLWSG)2-βAK) and IRDye800 conjugated to a scrambled peptide, AE354 (IRDye800CW-Glu-Glu-NH—CH2—CH2—O—CH2—CH2—O—CH2—CO—NH—CH2—CH2—O—CH2—CH2—O—CH2—CO-Asp-Cha-Glu-(D)Ser-(D)Arg-Tyr-Leu-Glu-Ser-OH) with similar peptide length as the active peptide. The competitive blocking dose of 1.4-2.8 mg AE120 was injected intraperitoneally 15-30 min prior to intravenous injection of 3 nmol IRDye800CW-AE344 and imaged at 1 h (n=5). The scrambled peptide was administered at 3 nmol and the animals were imaged after 1 h (n=4).
as §1

[3] = acute toxicity: liver and kidney histology; format: in vivo, mice; details: 3 nmol, 1 h post injection
Text: Liver and kidneys: Tissue was formalin fixed and paraffin embedded. Sections of 2-4 um thick were cut and a routine staining panel applied including: H&E, modified sirius, PAS and Masson trichome for both and additional PAS with silver for kidneys and PAS with diastase, iron, reticulin artisan and oxidised orcein for the livers. Livers were immunohistochemically stained, immunohistochemical evaluation on 3 μm thick sections was done using the CK7 antibody from Dako/Agilent, GA619 (clone OV-TL12/30) following the manufacturer's instructions. The staining took place on the Omnis from Agilent utilizing the EnVision Flex+ detection kit (GV800). The primary antibody was diluted using Antibody Diluent (Dako DM830) and were incubated for 20 minutes. The sections were counterstained with hematoxylin.

For `CC(C)C[C@H](NC(=O)[C@H](Cc1ccc(O)cc1)NC(=O)[C@@H](CCCNC(=N)N)NC(=O)[C@@H](CO)NC(=O)[C@H](Cc1ccccc1)NC(=O)[C@H](CC1CCCCC1)NC(=O)[C@H](CC(=O)O)NC(=O)COCCOCCNC(=O)COCCOCCNC(=O)[C@H](CCC(=O)O)NC(=O)[C@H](CCC(=O)O)NC(=O)CCCCC[N+]1=C(/C=C/C2=C(Oc3ccc(S(=O)(=O)O)cc3)C(=C/C=C3/N(CCCCS(=O)(=O)O)c4ccc(S(=O)(=O)O)cc4C3(C)C)/CCC2)C(C)(C)c2cc(S(=O)(=O)[O-])ccc21)C(=O)N[C@@H](Cc1c[nH]c2ccccc12)C(=O)N[C@@H](CO)C(=O)O` [IRDye800CW-AE344, IRDye800-Glu-Glu-O2Oc-O2Oc-Asp-Cha-Phe-D-ser-D-arg-Tyr-Leu-Trp-Ser-OH] (IRDye800CW-EE[AEEA][AEEA]D[Cha]F[dS][dR]YLWS-OH), the “maximal TBR” value ([1]; 1 nmol, at 0.5 h) was 4.4, the “tumor mean fluorescence intensity (MFI)” value ([1]; 1 nmol, at time of maximal TBR (0.5 h)) was 29 a.u and the “maximal TBR” value ([1]; 3 nmol, at 1 h) was 6.6. The “tumor mean fluorescence intensity (MFI)” value ([1]; 3 nmol, at time of maximal TBR (1 h)) was 77 a.u, the TBR ([1]; 6 nmol, 1 h) was 4.7 and the “tumor MFI” value ([1]; 6 nmol, 1 h) was 108 a.u. For the same molecule, the “tumor mean fluorescence intensity (MFI)” value ([1]; 6 nmol, 3 h) was 82 a.u, the “TBR (highest)” value ([1]; 6 nmol, 3 h after injection) was 7.0 and the TBR ([1]; 6 nmol, 6 h) was 6.1. The TBR ([1]; 6 nmol, 12 h) was 4.5, the “decrease in tumor MFI” value ([1]; 6 nmol, from 1 h to 3 h) was 24% and the TBR ([1]; 6 nmol, from 1 h to 12 h after injection) was “above 4.5”. The “peak time of TBR” value ([1]; 12 nmol) was 15 h, the “tumor MFI relative to that at 6 nmol” value ([1]; 12 nmol) was 58% and the “maximal TBR” value ([1]; 12 nmol, at 15 h) was 6.7. For the same molecule, the “tumor mean fluorescence intensity (MFI)” value ([1]; 12 nmol, at time of maximal TBR (15 h)) was 48 a.u, the TBR ([2]; blocked with AE120) was 4.6 and the “normalized TBR (ref: active probe)” value ([2]; competitively blocked with AE120) was 0.70. The TBR ([2]; no blocking) was 6.6, the “normalized TBR (ref: active probe)” value ([2]; no blocking) was 1.00 and the “kidney histology (H&E stained)” value [3] was “normal”. For the same molecule, the “liver histology (H&E stained)” value [3] was “normal”.
